Data reported in patent US12539292B2, “BRM targeting compounds and associated methods of use” (Arvinas Operations, Inc., priority 2018, dated 2026).
Like-named read-outs stand apart in the source and are kept apart here.

Target: T1, BRM (Homo sapiens, UniProt P51531)
T1 construct: In-Cell Western Screen of BRM Degradation in SW1573 Cells; endogenous in cells; host or cells: SW1573
Assay: In-cell Western screen of BRM degradation in SW1573 cells (Dmax and DC50)
Type: cell-based
Outline: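 Overnight compound treatment (18-20 h, final DMSO 0.1%) of SW1573 cells in DMEM with 10% FBS precedes fixation and in-cell Western staining with 800/680 nm dye-labelled secondaries. Plate images give DC50 and maximal degradation.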

[1] = BRM degradation, SW1573 cells, read-out: DC50
[2] = BRM degradation, SW1573 cells, read-out: Dmax (% degraded)
[3] = SW1573, % degraded, when tested at the top concentration of between 0.3 and 10 μM, read-out: BRM Dmax (%)
[4] = target protein degradation, read-out: BRM DC50

T1 sequence (P51531 whole entry): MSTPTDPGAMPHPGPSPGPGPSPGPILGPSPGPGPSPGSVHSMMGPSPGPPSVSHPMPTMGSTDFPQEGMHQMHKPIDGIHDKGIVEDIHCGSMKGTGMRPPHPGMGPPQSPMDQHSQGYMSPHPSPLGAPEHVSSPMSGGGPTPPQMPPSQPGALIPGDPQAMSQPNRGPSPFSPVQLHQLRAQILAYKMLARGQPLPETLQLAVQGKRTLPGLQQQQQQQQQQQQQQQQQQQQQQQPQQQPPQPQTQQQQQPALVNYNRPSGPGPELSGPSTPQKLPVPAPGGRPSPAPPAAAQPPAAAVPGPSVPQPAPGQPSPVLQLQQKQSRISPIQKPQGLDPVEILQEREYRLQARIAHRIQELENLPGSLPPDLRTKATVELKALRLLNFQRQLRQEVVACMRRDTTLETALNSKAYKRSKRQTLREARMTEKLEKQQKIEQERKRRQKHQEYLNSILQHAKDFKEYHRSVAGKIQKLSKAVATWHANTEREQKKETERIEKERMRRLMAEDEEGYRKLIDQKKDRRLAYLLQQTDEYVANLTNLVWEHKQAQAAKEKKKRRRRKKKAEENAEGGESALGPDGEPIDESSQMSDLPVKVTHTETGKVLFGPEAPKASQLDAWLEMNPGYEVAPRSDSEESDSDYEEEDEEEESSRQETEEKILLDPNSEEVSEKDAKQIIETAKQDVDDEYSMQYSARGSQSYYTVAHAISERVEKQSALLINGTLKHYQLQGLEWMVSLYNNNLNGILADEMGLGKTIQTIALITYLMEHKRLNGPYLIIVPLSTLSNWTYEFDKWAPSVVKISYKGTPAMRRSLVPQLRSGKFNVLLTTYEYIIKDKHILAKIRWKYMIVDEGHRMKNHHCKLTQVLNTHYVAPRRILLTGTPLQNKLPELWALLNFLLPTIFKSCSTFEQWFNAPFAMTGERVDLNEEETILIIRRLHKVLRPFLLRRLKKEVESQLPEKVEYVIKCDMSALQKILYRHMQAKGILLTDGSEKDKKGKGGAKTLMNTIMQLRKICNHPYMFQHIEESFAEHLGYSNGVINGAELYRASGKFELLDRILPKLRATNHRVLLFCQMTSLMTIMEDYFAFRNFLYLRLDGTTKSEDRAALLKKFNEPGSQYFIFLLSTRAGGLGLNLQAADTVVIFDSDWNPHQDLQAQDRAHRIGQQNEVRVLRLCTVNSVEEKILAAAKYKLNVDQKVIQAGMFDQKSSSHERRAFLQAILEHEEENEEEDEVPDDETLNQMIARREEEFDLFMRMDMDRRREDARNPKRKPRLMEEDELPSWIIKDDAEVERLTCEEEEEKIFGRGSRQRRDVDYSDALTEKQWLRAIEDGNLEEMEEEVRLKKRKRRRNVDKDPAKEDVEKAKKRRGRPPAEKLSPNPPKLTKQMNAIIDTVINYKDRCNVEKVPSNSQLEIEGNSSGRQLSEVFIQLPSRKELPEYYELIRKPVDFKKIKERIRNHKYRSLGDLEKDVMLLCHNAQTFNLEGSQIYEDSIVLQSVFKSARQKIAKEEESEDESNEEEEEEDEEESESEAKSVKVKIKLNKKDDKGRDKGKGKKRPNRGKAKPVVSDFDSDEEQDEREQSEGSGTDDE

`Cc1ncsc1-c1ccc([C@@H](C)NC(=O)[C@@H]2C[C@@H](O)CN2C(=O)[C@H](c2cc(OCCN3CCC(O[C@H]4C[C@H](Oc5cc(N6C7CCC6CN(c6cc(-c8ccccc8O)nnc6N)C7)ccn5)C4)CC3)no2)C(C)C)nn1` [compound 442, (2S,4R)-1-((2S)-2-(3-(2-(4-((1r,3S)-3-((4-(3-(3-amino-6-(2-hydroxyphenyl)pyridazin-4-yl)-3,8-diazabicyclo[3.2.1]octan-8-yl)pyridin-2-yl)oxy)cyclobutoxy)piperidin-1-yl)ethoxy)isoxazol-5-yl)-3-methylbutanoyl)-4-hydroxy-N-((R)-1-(6-(4-methylthiazol-5-yl)pyridazin-3-yl)ethyl)pyrrolidine-2-carboxamide] was tested, and the DC50 (degradation of BRM, read-out: BRM DC50) was greater than 0.03 µM.

In the case of `CC(C)[C@@H](C(=O)N1C[C@H](O)C[C@H]1C(=O)N[C@@H](C)c1ccc(-n2ccnc2CO)cc1)c1cc(OCC#Cc2ccc(O[C@H]3C[C@H](Oc4cc(N5C6CCC5CN(c5cc(-c7ccccc7O)nnc5N)C6)ccn4)C3)cn2)no1` [compound 285, (2S,4R)-1-((2R)-2-(3-((3-(5-((1r,3R)-3-((4-(3-(3-amino-6-(2-hydroxyphenyl)pyridazin-4-yl)-3,8-diazabicyclo[3.2.1]octan-8-yl)pyridin-2-yl)oxy)cyclobutoxy)pyridin-2-yl)prop-2-yn-1-yl)oxy)isoxazol-5-yl)-3-methylbutanoyl)-4-hydroxy-N-((S)-1-(4-(2-(hydroxymethyl)-1H-imidazol-1-yl)phenyl)ethyl)pyrrolidine-2-carboxamide], the DC50 [1] is reported as less than 0.0025 µM and the Dmax (BRM degradation, SW1573 cells, tested at the top concentration of between 0.3 and 10 μM, read-out: Dmax (%) (% degraded)) is reported as greater than 75%.

Work on `Cc1ncsc1-c1ccc([C@H](C)NC(=O)[C@@H]2C[C@@H](O)CN2C(=O)[C@@H](c2cc(N3CCC(CN4CCC(O[C@H]5C[C@@H](CN6CCC(C(C)n7cc(-c8cc(-c9ccccc9O)nnc8N)cn7)CC6)C5)CC4)CC3)no2)C(C)C)cc1` (stereo partly drawn) [compound 664, (2S,4R)-1-((2R)-2-(3-(4-((4-((1s,3s)-3-((4-(1-(4-(3-amino-6-(2-hydroxyphenyl)pyridazin-4-yl)-1H-pyrazol-1-yl)ethyl)piperidin-1-yl)methyl)cyclobutoxy)piperidin-1-yl)methyl)piperidin-1-yl)isoxazol-5-yl)-3-methylbutanoyl)-4-hydroxy-N-((S)-1-(4-(4-methylthiazol-5-yl)phenyl)ethyl)pyrrolidine-2-carboxamide] yielded a DC50 [1] of less than 0.0025 µM and a Dmax [2] greater than 75%.

With `Cc1ncsc1-c1ccc([C@H](C)NC(=O)[C@@H]2C[C@@H](O)CN2C(=O)[C@H](c2cc(N3CCC(N4CCC(O[C@H]5C[C@H](Oc6cc(N7C8CCC7CN(c7cc(-c9ccccc9O)nnc7N)C8)ccn6)C5)CC4)CC3)no2)C(C)C)cc1` [compound 684, (2S,4R)-1-((2S)-2-(3-(4-((1r,3S)-3-((4-(3-(3-amino-6-(2-hydroxyphenyl)pyridazin-4-yl)-3,8-diazabicyclo[3.2.1]octan-8-yl)pyridin-2-yl)oxy)cyclobutoxy)-[1,4'-bipiperidin]-1'-yl)isoxazol-5-yl)-3-methylbutanoyl)-4-hydroxy-N-((S)-1-(4-(4-methylthiazol-5-yl)phenyl)ethyl)pyrrolidine-2-carboxamide] the DC50 [1] was 0.01 to 0.03 µM and the Dmax [2] was 50 to 75%.

Work on `COC[C@H](NC(=O)[C@@H]1C[C@@H](O)CN1C(=O)[C@@H](c1cc(N2CCC(CN3CCC(O[C@H]4C[C@H](Oc5cc(N6C7CCC6CN(c6cc(-c8ccccc8O)nnc6N)C7)ccn5)C4)CC3)CC2)no1)C(C)C)c1ccc(-c2scnc2C)cc1` [compound 668, (2S,4R)-1-((2R)-2-(3-(4-((4-((1r,3r)-3-((4-(3-(3-amino-6-(2-hydroxyphenyl)pyridazin-4-yl)-3,8-diazabicyclo[3.2.1]octan-8-yl)pyridin-2-yl)oxy)cyclobutoxy)piperidin-1-yl)methyl)piperidin-1-yl)isoxazol-5-yl)-3-methylbutanoyl)-4-hydroxy-N-((R)-2-methoxy-1-(4-(4-methylthiazol-5-yl)phenyl)ethyl)pyrrolidine-2-carboxamide] yielded a DC50 [1] of less than 0.0025 µM and a Dmax [2] greater than 75%.

For `Cc1n[nH]c(C)c1-c1ccc([C@H](C)NC(=O)[C@@H]2C[C@@H](O)CN2C(=O)[C@H](c2cc(OCCN3CCC(O[C@H]4C[C@H](Oc5cc(N6C7CCC6CN(c6cc(-c8ccccc8O)nnc6N)C7)ccn5)C4)CC3)no2)C(C)C)cc1` [compound 377, (2S,4R)-1-((2S)-2-(3-(2-(4-((1r,3S)-3-((4-(3-(3-amino-6-(2-hydroxyphenyl)pyridazin-4-yl)-3,8-diazabicyclo[3.2.1]octan-8-yl)pyridin-2-yl)oxy)cyclobutoxy)piperidin-1-yl)ethoxy)isoxazol-5-yl)-3-methylbutanoyl)-N-((S)-1-(4-(3,5-dimethyl-1H-pyrazol-4-yl)phenyl)ethyl)-4-hydroxypyrrolidine-2-carboxamide], the Dmax [3] was greater than 75% and the DC50 [4] was 0.01 to 0.03 µM.

`Cc1ncsc1-c1ccc([C@H](C)NC(=O)[C@@H]2C[C@@H](O)CN2C(=O)[C@H](c2cc(OCCN3CCC(OC4CN(c5cc(N6C7CCC6CN(c6cc(-c8ccccc8O)nnc6N)C7)ccn5)C4)CC3)no2)C(C)C)cc1` [compound 354, (2S,4R)-1-((2S)-2-(3-(2-(4-((1-(4-(3-(3-amino-6-(2-hydroxyphenyl)pyridazin-4-yl)-3,8-diazabicyclo[3.2.1]octan-8-yl)pyridin-2-yl)azetidin-3-yl)oxy)piperidin-1-yl)ethoxy)isoxazol-5-yl)-3-methylbutanoyl)-4-hydroxy-N-((S)-1-(4-(4-methylthiazol-5-yl)phenyl)ethyl)pyrrolidine-2-carboxamide] gave a Dmax [3] greater than 75% and a DC50 [4] of 0.0025 to 0.01 µM.

Work on `Cc1cc([C@H](C(=O)N2C[C@H](O)C[C@H]2C(=O)N[C@@H](C)c2ccc(-c3scnc3C)cc2)[C@@H](C)COCCCOc2cc(N3C4CCC3CN(c3cc(-c5ccccc5O)nnc3N)C4)ccn2)on1` [compound 495, (2S,4R)-1-((2R,3R)-4-(3-((4-(3-(3-amino-6-(2-hydroxyphenyl)pyridazin-4-yl)-3,8-diazabicyclo[3.2.1]octan-8-yl)pyridin-2-yl)oxy)propoxy)-3-methyl-2-(3-methylisoxazol-5-yl)butanoyl)-4-hydroxy-N-((S)-1-(4-(4-methylthiazol-5-yl)phenyl)ethyl)pyrrolidine-2-carboxamide] yielded a DC50 (BRM degradation, read-out: BRM DC50) greater than 0.03 µM.

In the case of `Cc1ncsc1-c1ccc([C@H](C)NC(=O)[C@@H]2C[C@@H](O)CN2C(=O)[C@H](c2cc(OCCN3CCC(O[C@H]4C[C@H](Oc5nccc(N6C7CCC6CN(c6cc(-c8ccccc8O)nnc6N)C7)n5)C4)CC3)no2)C(C)C)cc1` [compound 463, (2S,4R)-1-((2S)-2-(3-(2-(4-((1r,3S)-3-((4-(3-(3-amino-6-(2-hydroxyphenyl)pyridazin-4-yl)-3,8-diazabicyclo[3.2.1]octan-8-yl)pyrimidin-2-yl)oxy)cyclobutoxy)piperidin-1-yl)ethoxy)isoxazol-5-yl)-3-methylbutanoyl)-4-hydroxy-N-((S)-1-(4-(4-methylthiazol-5-yl)phenyl)ethyl)pyrrolidine-2-carboxamide], the DC50 [4] is reported as greater than 0.03 µM.

In the case of `Cc1ncsc1-c1cc(F)c([C@H](C)NC(=O)[C@@H]2C[C@@H](O)CN2C(=O)[C@H](c2cc(N3CCC(CN4CCC(O[C@H]5C[C@H](Oc6cc(N7C8CCC7CN(c7cc(-c9ccccc9O)nnc7N)C8)ccn6)C5)CC4)CC3)no2)C(C)C)cc1F` [compound 680, (2S,4R)-1-((2S)-2-(3-(4-((4-((1r,3r)-3-((4-(3-(3-amino-6-(2-hydroxyphenyl)pyridazin-4-yl)-3,8-diazabicyclo[3.2.1]octan-8-yl)pyridin-2-yl)oxy)cyclobutoxy)piperidin-1-yl)methyl)piperidin-1-yl)isoxazol-5-yl)-3-methylbutanoyl)-N-((S)-1-(2,5-difluoro-4-(4-methylthiazol-5-yl)phenyl)ethyl)-4-hydroxypyrrolidine-2-carboxamide], the DC50 [1] is reported as greater than 0.03 µM.

`Cc1ncsc1-c1ccc([C@H](C)NC(=O)[C@@H]2C[C@@H](O)CN2C(=O)[C@@H](c2cc(OCC[C@@H]3CCN(C[C@H]4C[C@H](Oc5cc(N6C7CCC6CN(c6cc(-c8ccccc8O)nnc6N)C7)ccn5)C4)[C@@H](C)C3)no2)C(C)C)cc1` (racemic) [compound 582, (2S,4R)-1-((2R)-2-(3-(2-((2S,4R)-1-(((1r,3S)-3-((4-(3-(3-amino-6-(2-hydroxyphenyl)pyridazin-4-yl)-3,8-diazabicyclo[3.2.1]octan-8-yl)pyridin-2-yl)oxy)cyclobutyl)methyl)-2-methylpiperidin-4-yl)ethoxy)isoxazol-5-yl)-3-methylbutanoyl)-4-hydroxy-N-((S)-1-(4-(4-methylthiazol-5-yl)phenyl)ethyl)pyrrolidine-2-carboxamide] gave a Dmax (BRM degradation, SW1573 cells, Table 2D, read-out: **Dmax (%) (% degraded)) greater than 75% and a DC50 (BRM degradation, SW1573 cells, Table 2D, read-out: *DC50) of less than 0.0025 µM.

For `Cc1ncsc1-c1ccc([C@@H](CCCC(=O)O)NC(=O)[C@@H]2C[C@@H](O)CN2C(=O)C(c2cc(OCCN3CCC(O[C@H]4C[C@H](Oc5cc(N6C7CCC6CN(c6cc(-c8ccccc8O)nnc6N)C7)ccn5)C4)CC3)no2)C(C)C)cc1` (stereo partly drawn) [compound 686, (5R)-5-((2S,4R)-1-(2-(3-(2-(4-((1r,3r)-3-((4-(3-(3-amino-6-(2-hydroxyphenyl)pyridazin-4-yl)-3,8-diazabicyclo[3.2.1]octan-8-yl)pyridin-2-yl)oxy)cyclobutoxy)piperidin-1-yl)ethoxy)isoxazol-5-yl)-3-methylbutanoyl)-4-hydroxypyrrolidine-2-carboxamido)-5-(4-(4-methylthiazol-5-yl)phenyl)pentanoic acid], the DC50 [1] was greater than 0.03 µM.
